Results published in ChEMBL document CHEMBL4483862, “Open-source discovery of chemical leads for next-generation chemoprotective antimalarials” (2018).
pIC50: −log10 of the molar value.

Test system: Plasmodium berghei
Assay: Luciferase/luciferin-expressing antifolate-resistant parasites were used to infect a culture of HepG2 cells that were pre-incubated with compounds. Infected hepatocytes emit light due to the luciferase reaction. Assay results are presented as the percent inhibition of light emission compared to control. […]
Assay type: functional
Conditions: sporozoite; for pIC50: read-out: LUCIFERASE INFECTION ASSAY - IC50; for IC90: read-out: LUCIFERASE INFECTION ASSAY - IC90

| SMILES | pIC50 | IC90 |
| --- | --- | --- |
| CCC1(c2ccc(F)cc2)NC(=O)N(CC(=O)Nc2ccc(-c3nc4ccc(C)cc4s3)cc2)C1=O (stereo not drawn) | 5.01 | > 10 µM |
| O=C(/C=C/c1ccc(N2CCCCC2)c([N+](=O)[O-])c1)c1ccc(O)cc1 | 5.02 | > 10 µM |
| CC(C)N(Cc1ccccc1)C(=S)NC(=O)C1(C)CC1(Cl)Cl (stereo not drawn) | < 5.00 | > 10 µM |
| CCOC(=O)c1c(C)[nH]c(C)c1C(=O)COC(=O)c1c(OC)cccc1OC | < 5.00 | > 10 µM |
| CCc1cccc(CC)c1NC(=O)/C(C#N)=C/c1ccccc1C(F)(F)F | 5.43 | 4.5 µM |
| CCOCCCNC(=O)/C(C#N)=C/c1ccc(Cl)c([N+](=O)[O-])c1 | 5.28 | 9.95 µM |
| OC(CNCCc1ccc(Cl)cc1Cl)COc1ccccc1 (stereo not drawn) | < 5.00 | > 10 µM |
| CCc1cccc(NC(=O)C[n+]2c3n(c4ccc(C(F)(F)F)cc42)CCCCC3)c1 | 5.55 | 8.61 µM |
| Cc1nc(NCc2ccco2)c2c(C)c(C)sc2n1 | 5.43 | 4.47 µM |
| Cc1nn(-c2ccccc2)c(N2CCCC2)c1/C=N/O | < 5.00 | > 10 µM |
| Cc1nc(N/N=C/c2ccc(O)cc2)c2cnn(-c3ccccc3)c2n1 | < 5.00 | > 10 µM |
| N#Cc1ccc(CN2CCN(Cc3nnc(C(=O)Nc4ccc(Cl)cc4)s3)CC2)cc1 | < 5.00 | > 10 µM |
| O=C(Nc1cc(C(F)(F)F)ccc1Cl)C(Sc1nnc(Cc2cccs2)n1CCc1ccccc1)c1ccccc1 (stereo not drawn) | 5.27 | > 10 µM |
| Cc1cccc(C)c1/N=c1\scc(-c2cccc(Cl)c2)n1/N=C/C1CC=CCC1 (stereo not drawn) | < 5.00 | > 10 µM |
| Cc1nn(-c2ccccc2Cl)c2sc(C(=O)Nc3ccc(-c4nnc5n4CCCCC5)cc3)cc12 | < 5.00 | > 10 µM |
| Cc1ccccc1C(=O)/C=c1\s/c(=C\c2ccc(O)cc2)c(=O)n1C | < 5.00 | > 10 µM |
| Cc1nccn1Cc1cccc(CNC(=O)/C=C/c2cccc(Cl)c2Cl)c1 | < 5.00 | > 10 µM |
| Cc1ccc2c(c1)C1CN(C)CCC1N2C(=O)c1cc(-c2ccc(F)cc2)nc2ccccc12 (stereo not drawn) | < 5.00 | > 10 µM |
| Cc1cc(C)c(S(=O)(=O)Nc2cc3c(C(=O)Nc4ccccc4)c(C)oc3c3ccccc23)c(C)c1 | < 5.00 | > 10 µM |
| COc1ccccc1-c1noc(CSc2nc3ccccc3c(=O)n2-c2ccc(C)cc2)n1 | < 5.00 | > 10 µM |
| O=C1c2cc(Br)ccc2S(=O)(=O)N1CC(c1ccco1)N1CCCC1 (stereo not drawn) | < 5.00 | > 10 µM |
| Cc1c(C(=O)O)sc(S(=O)(=O)N2CCN(C(=O)C(C)(C)C)CC2)c1C(=O)O | < 5.00 | > 10 µM |
| CCOc1ccc(C=C(c2nc3ccccc3s2)c2nc3ccccc3s2)c(O)c1 | 5.17 | > 10 µM |
| O=C(c1ccc2[nH]c3c(c2c1)CCCC3)N1CCN(Cc2nc(-c3cccs3)no2)CC1 | < 5.00 | > 10 µM |
| CC1Sc2ccc(C(=O)Nc3ccnn3Cc3cccc(Cl)c3Cl)cc2NC1=O (stereo not drawn) | < 5.00 | > 10 µM |
| O=C(N/N=C1/C(=O)c2cccc3cccc1c23)c1cccc(S(=O)(=O)N2CCCCC2)c1 | < 5.00 | > 10 µM |
| CCOc1cc(/C=C/C(=O)c2ccc(C)cc2)cc(Br)c1OCC(=O)N(C)C | 5.47 | 3.89 µM |

| SMILES | pIC50 | IC90 |
| --- | --- | --- |
| Cc1coc(C)c1C(=O)/C=C/c1ccc2cccnc2c1 | 5.60 | 2.69 µM |
| Cc1nn(CC(=O)NCCCN2c3ccccc3Sc3ccccc32)c(C)c1[N+](=O)[O-] | < 5.00 | > 10 µM |
| Cc1c(C(=O)Nc2ccc(N3CCN(C)CC3)nc2)cnn1-c1ccc(C(F)(F)F)cn1 | < 5.00 | > 10 µM |
| CC(C)c1cc(C(=O)OCCCn2c(=O)[nH]c3ccccc32)c2cnn(C(C)C)c2n1 | < 5.00 | > 10 µM |
| CCOc1ccc(/C=C2\CCCC3C2=NN(C(=O)C2(S(=O)(=O)c4ccccc4)CC2)C3c2ccc(OCC)cc2)cc1 (stereo not drawn) | 5.25 | > 10 µM |
| O=C(Cc1csc(-c2ccccn2)n1)Nc1sc2c(c1C(=O)NCc1ccccc1)CCCC2 | < 5.00 | > 10 µM |
| COc1cc(/C=C2/C(=O)N(C)c3ccccc32)cc(OC)c1 | < 5.00 | > 10 µM |
| CC(C)(C)c1ccc(-c2nnc(SCC(=O)N3CCc4ccccc4C3)n2Cc2ccccc2)cc1 | < 5.00 | > 10 µM |
| CCc1ccccc1-n1c(SCCn2c(=O)oc3ccccc32)nc2ccccc2c1=O | < 5.00 | > 10 µM |
| CN1C(=O)/C(=C\c2ccccc2[N+](=O)[O-])c2ccccc21 | 5.03 | > 10 µM |
| Cc1ccc2nc(NC(=O)c3cn(C)nc3-c3ccc4c(c3)OCCCO4)sc2c1 | < 5.00 | > 10 µM |
| COc1ccccc1CNC(=O)NC(C)c1ccc(Cl)cc1Cl (stereo not drawn) | < 5.00 | > 10 µM |
| COc1ccc(/C=C2\CCCc3c2nc2ccccc2c3C(=O)OCc2cccc(C(F)(F)F)c2)cc1OC | < 5.00 | > 10 µM |
| Cc1ccc(S(=O)(=O)N(C)c2ccc(OCc3coc(-c4cccs4)n3)cc2)cc1 | < 5.00 | > 10 µM |
| CC(=O)NCCc1ccc(C(=O)CSc2nccn2-c2ccc(Cl)cc2)s1 | < 5.00 | > 10 µM |
| c1ccc(-c2csc3nc(-c4ccccn4)nc(Sc4nnc(-c5ccco5)o4)c23)cc1 | < 5.00 | > 10 µM |
| O=C(OCC(=O)C12CC3CC(CC(C3)C1)C2)c1cc2ccccc2cc1O | < 5.00 | > 10 µM |
| Cc1cc(-c2nc3c(c(=O)[nH]c(=O)n3Cc3ccccc3)n2CC2CCCO2)cc(C)c1O (stereo not drawn) | < 5.00 | > 10 µM |
| O=C(/C=C/c1ccccc1[N+](=O)[O-])c1cccc(C(F)(F)F)c1 | 5.31 | 5.08 µM |
| CCOC(=O)c1c(-c2ccccc2)oc2ccc(N(C(C)=O)S(=O)(=O)c3ccc4ccccc4c3)cc12 | 5.20 | > 10 µM |
| O=C(Cc1nc(C23CC4CC(CC(C4)C2)C3)cs1)NCc1ccccc1 | < 5.00 | > 10 µM |
| COc1ccc(OCCN2CCN(c3ccc(S(=O)(=O)NC(C)C)cn3)CC2)cc1 | < 5.00 | > 10 µM |
| CCc1sc(C(=O)NNC(=O)CN2CCN(c3ccc([N+](=O)[O-])cc3)CC2)cc1C | < 5.00 | > 10 µM |
| Cn1c(N)c(C(=O)COC(=O)c2c3c(nc4ccccc24)/C(=C/c2ccc(O)cc2)CCC3)c(=O)n(C)c1=O | 5.58 | 6.45 µM |
| CCOC(=O)/C(=N\Nc1cc(C(F)(F)F)ccc1Cl)N1CCN(C(c2ccccc2)c2ccccc2)CC1 | 5.30 | > 10 µM |
| CCn1c(=O)n(CCC(=O)N(CC2CCCO2)c2nc3ccccc3s2)c2ccccc21 (stereo not drawn) | < 5.00 | > 10 µM |
| CCOC(=O)c1c(NC(=O)Cn2ncc(Cl)c(Cl)c2=O)sc2c1CCC(C)C2 (stereo not drawn) | < 5.00 | > 10 µM |

| SMILES | pIC50 | IC90 |
| --- | --- | --- |
| Cc1ccc(C)c(S(=O)(=O)N(Cc2nnc(-c3ccc(Cl)cc3)o2)c2cccc(C(F)(F)F)c2)c1 | < 5.00 | > 10 µM |
| O=C(Nc1sc2c(c1CN1CCN(C(=O)c3ccco3)CC1)CCCC2)c1ccccc1F | < 5.00 | > 10 µM |
| CCOc1ccc(Oc2ccc(S(=O)(=O)N(C)C3CCN(CC)CC3)cc2)cc1 | < 5.00 | > 10 µM |
| CN(Cc1ccc(-c2ccc(Cl)cc2)o1)Cc1nnc2n(C)c(=O)c3ccccc3n12 | < 5.00 | > 10 µM |
| COC(=O)c1ccccc1NC(=O)/C=C/c1ccc(N2CCCS2(=O)=O)cc1 | 5.53 | 6.74 µM |
| CCOC(=O)c1nc(N(CCc2ccccc2)C(=O)c2cccnc2SC)sc1C | < 5.00 | > 10 µM |
| COC(=O)c1occc1/C=C/C(=O)c1ccc2c(c1)CCC2 | < 5.00 | > 10 µM |
| Cc1cc(C)cc(NC(=O)C(NNC(=O)CC23CC4CC(CC(C4)C2)C3)c2ccccc2)c1 (stereo not drawn) | < 5.00 | > 10 µM |
| Cc1cc(=O)n2nc(CSc3ncc(-c4ccccc4)n3-c3c(C)cccc3C)sc2n1 | 5.62 | 5.16 µM |
| Cc1cc(C(=O)N(C(=O)NC2CCCCC2)C2CCCCC2)c(C)n1-c1ccccc1 | 5.95 | 8.67 µM |
| COc1ccccc1C(=O)OC(c1ccc(NC(=O)c2ccc(OC(F)F)cc2)cc1)(C(F)(F)F)C(F)(F)F | 5.45 | 4.33 µM |
| CCOC(=O)c1cnn(-c2ccc(NC(=O)COc3ccccc3C#N)cc2)c1C(F)(F)F | < 5.00 | > 10 µM |
| CCOC(=O)c1cnn(-c2cccc(NC(=O)c3ccc(SC)c([N+](=O)[O-])c3)c2)c1C | < 5.00 | > 10 µM |
| Cc1cc(=O)n2nc(CSc3nc4ccccc4c(=O)n3C3CCCC3)sc2n1 | < 5.00 | > 10 µM |
| Cc1sc(NC(=O)c2ccco2)c(C(c2cccc(C(F)(F)F)c2)N2CC(C)CC(C)C2)c1C (stereo not drawn) | 5.21 | > 10 µM |
| Cc1ccc(S(=O)(=O)c2c(C)nn(C(C)(C)C)c2OC(=O)c2cccc([N+](=O)[O-])c2)cc1 | < 5.00 | > 10 µM |
| COc1ccc(/C=c2\s/c(=C\C(=O)C(C)(C)C)[nH]c2=O)cc1OCc1cccnc1 | < 5.00 | > 10 µM |
| O=C1CN(C(=O)CSC2=N/C(=C/c3ccccc3)C(=O)N2c2ccc(F)cc2)c2ccccc2N1 | < 5.00 | > 10 µM |
| CCN1CCc2nc(NC(=O)c3nc(-c4cccs4)n(-c4ccc(F)cc4)n3)sc2C1 | < 5.00 | > 10 µM |
| Cc1cn2c(/C=C/C(=O)Nc3cccc(Cl)c3N3CCOCC3)c(C)nc2s1 | < 5.00 | > 10 µM |
| Cc1cnc(NC(=O)c2ccc(C3SCCS3)cc2)s1 | 6.56 | > 10 µM |
| O=C(Nc1ccc(-c2nc3ccccc3[nH]2)cc1)c1cnn(-c2ccccc2)c1C1CC1 | 5.48 | 3.59 µM |
| Cc1cc(C(=O)CN2CCc3sccc3C2)c(C)n1Cc1cccs1 | 5.66 | > 10 µM |
| CCN(CC)C(CNc1ccc([N+](=O)[O-])cn1)Cc1ccccc1 (stereo not drawn) | 5.15 | > 10 µM |
| O=C(c1ccc(NS(=O)(=O)c2cccs2)cc1)N1CCC(c2c[nH]c3ccccc23)CC1 | < 5.00 | > 10 µM |
